Source: patent US9242883B2, “Pre-treatment of sludge” (THE UNIVERSITY OF QUEENSLAND, priority 2011, dated 2016)
“And” between values parts separate entries of the source, which are not always exact repeats. Equal values may be shown once. Read-outs that look alike come from different tables or passages of the source.

Tests used:
[1] = Protocol: In this experiment, a lab-scale sequencing batch reactor (SBR) with a working volume of 8 L was used in this study. The SBR was operated with a cycle time of 6-h, consisting of 10 min anoxic feed, 70 min anoxic reaction, 225 min aerobic reaction, 5 min sludge wasting, 45 min settling and 5 min decanting periods. In each cycle, 2 L of synthetic wastewater containing 400 mg COD and 50 mgN/L TKN including 40 mgNH4+-N/L, made from milk powder and ammonium chloride, along with other trace elements, was pumped into the SBR in the 10 min feed period, resulting in a hydraulic retention time (HRT) of 24 h. Before settling, around 133 ml of mixed liquor was wasted, giving rise to a sludge retention time of 15 days. The SBR was operated at a temperature of 18±2° C., with DO being controlled between 1.5-2.0 mg/L by a programmable logic controller (PLC) in the aerobic period.
50% of the wasted mixed liquor was treated by 2.0 mg HNO2-N/L for approximately 24 h, 30 h, 36 h and 42 h, respectively.
The sludge wasted from the SBR was allowed to settle. […] The other 50% of the sludge was sent to disposal.
A control SBR operating under identical conditions was also fed with the same wastewater, but there was no recycle of any sludge to this reactor.

AOB, NOB and OHOs = details: FNA 0.22-2.47 mgN/L, pH 6, 24 h exposure
Protocol: Sludge was taken out from the parent reactor (SBR) at the end of an aerobic period and then transferred into a batch reactor. Afterwards, ammonium and nitrite stock solutions were added to the batch reactor, resulting in the ammonium and nitrite concentrations of 25 mg NH4-N/L and 20 mg NO2-N/L, respectively. Air was supplied during the whole experiment period (DO was not limiting, i.e. >3 mg/L). pH was controlled in the range of 7.5-8 during the whole experimental period. The activities of AOB and NOB were determined as biomass-specific nitrite+nitrate and nitrate production rates, respectively.
Sludge was taken out from the parent reactor at the end of an aerobic period and then transferred into a batch reactor. Afterwards, sodium acetate and ammonium stock solutions were added to the batch reactor, resulting in the COD and ammonium concentrations of 150 mg COD/L and 20 NH4-N/L, respectively. Air was supplied during the whole experiment period (DO was not limiting, i.e. >3 mg/L). pH was controlled in the range of 7.5-8 during the whole experimental period. The aerobic activity of OHO was determined as biomass-specific COD consumption rates.
The experimental conditions applied in batch testing are set out in Table 6.

[2] = system: secondary sludge (enriched methonal-utilising denitrifiers culture)
Protocol: (§1) In general, primary sludge is readily hydrolysable (Mahmood and Elliott, 2006; Foladori et al., 2010). […] A series of batch tests were conducted through the use of an enriched methonal-utilising denitrifiers culture, which was employed as secondary sludge in this study.

[3] = system: secondary sludge (denitrifying microorganisms)
Protocol: as §1

denitrifying biomass [4] = details: for methanol consumption rate / nitrate consumption rate / methanol consumption rate, activity recovery / nitrate consumption rate, activity recovery: experimental reactor
Protocol: Methanol provided the carbon source and nitrate provided the electron acceptor. The following procedure was followed:
1. Sludge removed from the denitrifying SBR (sequencing batch reactor). The biomass was enriched for 5 months in an 8 L reactor with methanol as the carbon source and nitrate as the electron acceptor.
2. A batch experiment was performed at pH 6 for initial biomass activity determination. At the beginning of the test, nitrate and methanol were added. Liquid phase samples were taken every 15 minutes for the analysis of nitrate and methanol. The consumption rates of methanol and nitrate were determined. All other batch tests described below were also conducted at pH 6. 3. Fresh sludge of 2 L was removed from the SBR at the end of a cycle, and equally divided into two batch reactors, namely the control and the experimental reactors. • a. The sludge in the control reactor was kept at pH 6 under mixed conditions for 48 hours; • b. The sludge in the experimental reactor was kept at pH 6 under mixed conditions for 48 hours. […] 4. 24 hours after the above conditions were started, sludge samples of 250 mL each were removed from both the control and the experimental reactors, and batch experiments as described in Step 2 were performed. Before the addition of nitrate and methanol, the sludges were washed with effluent from the parent SBR to ensure that both sludge samples were nitrite-free. 5. The above tests were repeated at 48 hours. 6. Sludge samples were also removed at 48 hours from both reactors to quantify the live/dead cells using the Live/Dead BacLight Bacterial Viability assay. 7. At 48 hours, the experimental reactor was washed with the effluent from the parent SBR to remove the residual nitrite. Nitrate and methanol were then added to the reactor resulting in concentrations of […] and 150 mg/L, respectively. The methanol and nitrate consumptions rates at the end of Day 3, Day 4 and Day 7 were measured through measuring the nitrate and methanol concentrations over a period over one hour each time. […] Experiments with Full-Scale Sludge

denitrifying biomass [5] = details: methanol sludge, experimental reactor, 48 hours, FNA approx. 0.97 ppm, pH 6; 16 images
Protocol: 2. A batch experiment was performed at pH 6 for initial biomass activity determination. At the beginning of the test, nitrate and methanol were added. Liquid phase samples were taken every 15 minutes for the analysis of nitrate and methanol. The consumption rates of methanol and nitrate were determined. All other batch tests described below were also conducted at pH 6. 3. Fresh sludge of 2 L was removed from the SBR at the end of a cycle, and equally divided into two batch reactors, namely the control and the experimental reactors. • a. The sludge in the control reactor was kept at pH 6 under mixed conditions for 48 hours; • b. The sludge in the experimental reactor was kept at pH 6 under mixed conditions for 48 hours. […] 4. 24 hours after the above conditions were started, sludge samples of 250 mL each were removed from both the control and the experimental reactors, and batch experiments as described in Step 2 were performed. […] Sludge samples were also removed at 48 hours from both reactors to quantify the live/dead cells using the Live/Dead BacLight Bacterial Viability assay. […] The methanol and nitrate consumptions rates at the end of Day 3, Day 4 and Day 7 were measured through measuring the nitrate and methanol concentrations over a period over one hour each time. […]

[6] = system: bacteria in a full-scale sludge; details: FNA treated, 48 hours, 500 mgNO2-N/L, pH 6.0, 29 images
Protocol: Similar tests were performed on a full-scale sludge. However, no activity tests were carried out. […] The nitrite concentration applied to the experimental reactor was 500 mgNO2-N/L. pH was maintained at 6.0 in both the control and experimental reactors.

secondary sludge = details: famine conditions, during FNA treatment (FIG. 4)
Description: NH4+ release rate under famine conditions is an indication of the hydrolysis of intracellular compounds release during the decay of dying cells. This hydrolysis is taken place by the activity of other living microorganisms present in the sludge.

[7] = Day 1 of exposure, 500 mg NO2-N/L, pH 6, FNA approx. 0.97 ppm
[8] = Day 2 (48 h exposure; time when recovery started), FNA approx. 0.97 ppm, pH 6
[9] = Day 3, after 48 h FNA exposure and nitrite wash-out
[10] = Day 4, after 48 h FNA exposure and nitrite wash-out
[11] = Day 7, after 48 h FNA exposure and nitrite wash-out

O=NO [FNA, free nitrous acid]
MLSS Predicted if FNA did not improve sludge degradability ([1]; FNA reactor, steady state): 2369 mg/L
MLVSS Predicted if FNA did not improve sludge degradability ([1]; FNA reactor, steady state): 2274 mg/L
FNA treated sludge degraded in the reactor ([1]; mass balance analysis of MLSS and MLVSS): approximately 75%
reduction of NOB and OHO compared to AOB (AOB, NOB and OHOs): significantly greater reduction in NOB
live cell fraction, effect of exposure time ([2]; 48 h of exposure vs shorter, biggest difference at highest FNA concentrations): Smaller live cell fraction
fraction of viable cells, dependency on FNA concentration ([2]; exposure 8 h, 24 h, 48 h (FIG. 3)): decreased with increasing FNA concentration
biomass (denitrification) activity recovery ([3]; longest exposure time to FNA, even at lowest FNA concentration): almost negligible
biomass (denitrification) activity recovery ([3]; lower exposure time, 8 h to FNA): displays a recovery
loss of biomass activity (denitrifying biomass [4]; FNA approximately 1 ppm for 48 hours): 99%
methanol consumption rate (denitrifying biomass [4]; [7]): 0.051 mg Methanol/gVSS*min
nitrate consumption rate (denitrifying biomass [4]; [7]): 0.014 mg N—NO3^−/gVSS*min
methanol consumption rate (denitrifying biomass [4]; [8]): 0.0 mg Methanol/gVSS*min and 0 mg Methanol/gVSS*min
nitrate consumption rate (denitrifying biomass [4]; [8]): 0.004 mg N—NO3^−/gVSS*min
methanol consumption rate, activity recovery (denitrifying biomass [4]; [9]): 0.133 mg Methanol/gVSS*min
nitrate consumption rate, activity recovery (denitrifying biomass [4]; [9]): 0.004 mg N—NO3^−/gVSS*min
methanol consumption rate, activity recovery (denitrifying biomass [4]; [10]): 0.067 mg Methanol/gVSS*min
nitrate consumption rate, activity recovery (denitrifying biomass [4]; [10]): 0.022 mg N—NO3^−/gVSS*min
methanol consumption rate, activity recovery (denitrifying biomass [4]; [11]): 0.235 mg Methanol/gVSS*min
nitrate consumption rate, activity recovery (denitrifying biomass [4]; [11]): 0.089 mg N—NO3^−/gVSS*min
Average (% dead cells) (denitrifying biomass [5]): 40.4%
Average (% dead cells) [6]: 63.6%
NH4+ release rate, dependency on FNA concentration (secondary sludge): decrease
